Measurements taken from PubChem BioAssay AID1996.
Converted amounts (≈) assume the structure as drawn.

Conditions: buffer; pH 7.4; 200.0 µM

Structure (SMILES) | solubility kinetic
COc1cccc(NC(=O)NCCCCc2ccccc2)c1 | 12.9 µg/mL (≈ 43.2 µM)
CCOc1ccc(NC(=O)CCC(=O)c2ccc(OC)cc2)cc1 | 3 µg/mL (≈ 9.16 µM)
CCc1ccc(NC(=O)COC(=O)CCC2CCCC2)cc1 | 7.9 µg/mL (≈ 26 µM)
COc1ccc(CCNC2CCC(c3ccccc3)CC2)cc1 (centres undefined) | > 46.4 µg/mL
O=C(CCc1ccccc1)NCCc1nc2ccccc2[nH]1 | > 44 µg/mL
CCN1CNC(=S)N(c2cccc(C)c2)C1 | > 35.3 µg/mL
COc1ccc(NC(=O)COC(=O)C23CC4CC(CC(O)(C4)C2)C3)cc1Cl | > 59.1 µg/mL
O=C(c1ccccc1F)N1CCCc2ccccc21 | 33.4 µg/mL (≈ 131 µM)
Cc1cccnc1NC(=O)c1ccc(Cl)c(S(=O)(=O)N2CCCC2)c1 | > 57 µg/mL
CCN(CC)S(=O)(=O)N1CCC(C(=O)NCc2ccco2)CC1 | > 51.5 µg/mL
CN1CCN(C(=O)/C(=C/c2ccc(F)cc2)NC(=O)c2ccccc2)CC1 | 54.5 µg/mL (≈ 148 µM)
Cc1ccc(NC(=S)NCC2CCN(C(C)c3ccccc3)C2)cc1 (centres undefined) | > 53 µg/mL
Cc1cc(C)nc(/N=C(\N)Nc2cccc(OCc3ccccc3)c2)n1 | > 52.1 µg/mL
COc1cccc(OC)c1C(=O)NC(=O)Nc1c(F)cc(F)cc1F | 5.4 µg/mL (≈ 15.2 µM)
CC(=O)N1C(C)(C)CC(=NOC(=O)c2ccc(C)cc2)CC1(C)C | > 49.6 µg/mL
CN(C)S(=O)(=O)c1cccc(NC(=O)Cc2ccsc2)c1 | > 48.7 µg/mL
COC(=O)c1cc2c(=O)c3ccccc3oc2nc1C | 5.4 µg/mL (≈ 20.1 µM)
C=CCC(C(=O)OC)(C(=O)OC)c1ccccc1[N+](=O)[O-] | > 44 µg/mL
O=C(c1ccc2ncsc2c1)N1CCCC(C(F)(F)F)C1 (centres undefined) | > 47.1 µg/mL
CC(=O)Nc1ccc(OC(=O)Cc2ccc(Cl)cc2)cc1 | 1.4 µg/mL (≈ 4.61 µM)

Structure (SMILES) | solubility kinetic
OC(CNC1CCCCC1)C(F)(F)F (centres undefined) | > 31.7 µg/mL
CC(=O)Nc1nc(C)c(-c2nc3ccc([N+](=O)[O-])cc3[nH]2)s1 | 1.2 µg/mL (≈ 3.78 µM)
COc1ccc(/C=N/OCC(=O)NCC(C)C)c(OC)c1 | > 44.2 µg/mL
O=C(COC(=O)c1cc([N+](=O)[O-])ccc1NCCO)Nc1cccnc1Cl | 9.1 µg/mL (≈ 23.1 µM)
N#Cc1ccc(OCC(=O)Nc2ccncc2)cc1 | 36 µg/mL (≈ 142 µM)
O=C1CC(Sc2cccs2)C(=O)N1c1ccccc1 (centres undefined) | 41.7 µg/mL (≈ 144 µM)
Cc1csc(NC(=O)CCCNC(=O)c2ccc(Cl)cc2)n1 | 10.2 µg/mL (≈ 30.2 µM)
O=C(Nc1cscc1S(=O)(=O)c1ccc(Cl)cc1)c1ccccc1Cl | 2.6 µg/mL (≈ 6.31 µM)
CC1(c2ccccc2Cl)NC(=O)N(CC(=O)N2CCc3ccccc32)C1=O (centres undefined) | 10.1 µg/mL (≈ 26.3 µM)
COc1ccc(CC(=O)NCc2ccc(F)cc2)cc1S(=O)(=O)N1CCOCC1 | > 63.4 µg/mL
COc1ccc(/C(N)=N/OC(=O)CCC2CCCC2)cc1 | 4.2 µg/mL (≈ 14.5 µM)
Cc1cc2ccccn2c1C(=O)c1ccc([N+](=O)[O-])o1 | 1.3 µg/mL (≈ 4.81 µM)
CC(=O)N1CCN(c2ccc(C(N)=O)cc2[N+](=O)[O-])CC1 | > 43.8 µg/mL
O=C(Nc1ccccn1)c1ccc2c(=O)n3c(nc2c1)CCCCC3 | > 50.2 µg/mL
C[C@H](NC(=O)c1ccco1)C(=O)N1CCN(c2ccc(C(F)(F)F)cn2)CC1 | > 59.5 µg/mL
Cc1onc(-c2ccccc2)c1C(=O)N(Cc1ccccn1)Cc1ccccn1 | > 57.7 µg/mL
O=C(Cc1cccs1)N1CCN(c2cccc(Cl)c2)CC1 | 42.9 µg/mL (≈ 134 µM)
CC1CCc2sc(C(=O)NCCCn3ccnc3)cc2C1 (centres undefined) | 35 µg/mL (≈ 115 µM)
CCN1CCN(C(=O)Cc2ccc(C)cc2)CC1 | > 37 µg/mL
CC1(C)CC(=O)C=C(Nc2ccc(O)c(C(=O)O)c2)C1 | > 41.3 µg/mL

Structure (SMILES) | solubility kinetic
CCCCOC(=O)c1sc2nc(C)cc(C)c2c1N | 0.6 µg/mL (≈ 2.16 µM)
CCCc1nc(NCCO)c(C#N)c2c1CCCC2 | > 38.9 µg/mL
CN1CCN(Cc2cn(C)c3ccccc23)CC1CCO (centres undefined) | 32.3 µg/mL (≈ 112 µM)
CCOC(=O)c1nc2c(=O)n(C)c(=O)n(C)c2n(C)c1=O | > 44.1 µg/mL
CC(C)NC(=O)c1ccc(N(Cc2ccccc2)S(C)(=O)=O)cc1 | 11.1 µg/mL (≈ 32 µM)
Cc1cccc(C(=O)N/N=C/c2ccoc2)c1 | > 34.2 µg/mL
Cc1cccc(Nc2ccc(C(=O)O)cc2[N+](=O)[O-])c1C | > 42.9 µg/mL
CC(C)(C(=O)c1cccnc1)c1cccnc1 | > 33.9 µg/mL
Cc1cc(C)cc(C(=O)Nc2cc3c4c(c2)CC(=O)N4CCC3)c1 | 1.2 µg/mL (≈ 3.75 µM)
CC(Oc1ccccc1)C(=O)N1CCN=C1SCc1ccccc1F (centres undefined) | 11.4 µg/mL (≈ 31.8 µM)
Cc1ccc(NC(=O)CCN2CC(C)OC(C)C2)cc1.Cl (centres undefined) | > 46.9 µg/mL
Oc1ccc(Br)cc1CNc1cnc2ccccc2c1 | 1 µg/mL (≈ 3.04 µM)
COCC(C)NC(=O)c1cc(OC)cc(OC)c1 (centres undefined) | > 38 µg/mL
Cc1cc([N+](=O)[O-])c2ccccc2[n+]1[O-] | > 30.6 µg/mL
CC1(C)S[C@@H]2[C@H](NC(=O)C(C(=O)[O-])c3ccccc3)C(=O)N2[C@H]1C(=O)[O-].[Na+] (some centres undefined) | > 63.4 µg/mL
CN(C)S(=O)(=O)c1cccc(NC(=O)c2ccc(NS(=O)(=O)c3cccs3)cc2)c1 | 59.5 µg/mL (≈ 128 µM)
c1ccc(Oc2nc(-c3cccnc3)nc3ccccc23)cc1 | 0.7 µg/mL (≈ 2.34 µM)
O=C(Cn1cncn1)NCCCc1ccccc1 | > 36.6 µg/mL
O=C(CCNC(=O)c1ccccc1)NCC1CCCCC1 | > 43.3 µg/mL
